According to patent US10570168B2, “2′ and/or 5′ amino-acid ester phosphoramidate 3′-deoxy adenosine derivatives as anti- cancer compounds” (NuCana plc, priority 2014, dated 2020):
pIC50: −log10 of the molar value. Like-named read-outs stand apart in the source and are kept apart here.

Legend:
[1] = test system: CCRF-CEM (TdT positive CEM); assay: ATP (ViaLight plus) cytotoxicity assay; type: cell-based, Human; details: for pIC50: Homo sapiens, CCRF-CEM
Procedure: (§1) Certain compounds of the invention were subjected to further studies to test the cytotoxic activity of certain compounds of the invention and also to measure their activity against 4 haematological cancer cell lines • TdT positive CEM (Human ALL) • TdT negative K562 (Human CML) • TdT negative H1-60 (Human ANLL) • RL (CRL-2261) non-HD lymphoma • The concentrations of the active metabolite dATP (Cordycepin triphosphate) in these cell lines was also measured. • The cytotoxic activity and the intracellular 3′-dATP concentrations were also studied in the presence of hENT1, Adenosine Kinase (AK) and Adenosine Deaminase pharmacological inhibitors in CEM and RL cancer cell lines. Said inhibitors that mimic known cancer resistance mechanisms. Methods Cell Culture
(§2) HL-60 (ATCC® CCL-240™), K562 (ATCC® CCL-243™), CCRF-CEM (ATCC® CRM-CCL-119™) and RL (ATCC® CRL-2261™) leukaemia cell lines, obtained from the American Type Culture Collection (ATCC), Middlesex. HL-60 and K562 cell lines are deoxynucleotidyl transferase-negative (TdT-ve), whereas CCRF-CEM cell line is TdT+ve.
(§3) HL-60, K562, CCRF-CEM and RL cell lines were cultured in RPMI-1640 medium (Sigma Aldrich, UK), which were supplemented with 10% Fetal Bovine Serum (FBS) (PAA Laboratories), 1% amphotericin B (5.5 ml) and 1% penicillin/streptomycin (5.5 ml) (PAA Laboratories) and grown in flasks at 37° C. incubator with 5% CO2.
(§4) The amount of ATP was used as a measurement of cell number and cell viability. ATP ViaLight™ plus assay kit (Lonza, USA: Product No. LT07-121) to detect ATP in cells treated in luminescence compatible 96 well plates (initial concentration of cells was 1×10^4 cells/well) with cordycepin and ProTides at concentrations of: 0, 0.1, 0.5, 1, 5 and 10 μM, followed by incubation for 72 hours at 37° C. incubator with 5% CO2. For inhibitor studies, 10 μM of NBTI or 1 μM EHNA or A-134974 was added and left for 5 minutes before adding the drugs (see section 5 for inhibitor details).
(§5) After incubation, 50 μl of cell lysis reagent was added to the 96 well plates to release the intracellular ATP, followed by 100 μl of ATP monitoring reagent (AMR). The luminescent values of each well were determined using FLUOstar OPTIMA microplate reader (BMG Labtech) which convert ATP into light by using luciferase enzyme. Therefore, the amount of luminescence produced was directly proportional to the amount of ATP.
(§6) Cell lines were treated in the same way as described above but before treatment with drugs, a number of inhibitors were added: • 1) Nitrobenzylthioinosine (NBTI) (Sigma-Aldrich, St. Louis, Mo., product # N2255) blocks nucleoside transporters • 2) EHNA hydrochloride (Sigma-Aldrich, St. Louis, Mo., product # E114) blocks adenosine deaminase • 3) Adenosine kinase inhibitor A-134974 dihydrochloride hydrate (Sigma-Aldrich, St. Louis, Mo., product # A2846): blocks adenosine kinase
(§7) The dose-response curves of cytotoxicity of the drugs was determined using non-linear regression analysis of percentage cell viability versus concentration and EC50 values were obtained. The intracellular assay was conducted in five replicates for each condition. Intracellular assay was determined using paired t test (two-tailed) analysis of 3′ATP/ATP concentration and p-values were obtained. For all the analysis, Prism Software program (GraphPad Software) was used and Microsoft Powerpoint® 2013 was used to plot the results.

K562 (TdT negative) = assay: ATP (ViaLight plus) cytotoxicity assay; type: cell-based, Human; details: for pIC50: Homo sapiens
Procedure: as §1, §2, §3, §4, §5, §7

HL-60 (TdT negative) = assay: ATP (ViaLight plus) cytotoxicity assay; type: cell-based, Human; details: for (FD) fold difference compared to Cordycepin = Cordycepin IC50/ProTide IC50: HL-60; for pIC50: Homo sapiens
Procedure: as §1, §2, §3, §4, §5, §7

RL (CRL-2261) = assay: ATP (ViaLight plus) cytotoxicity assay; type: cell-based
Procedure: as §1, §2, §3, §4, §5, §6, §7

MCF-7 = assay: CellTiterGlo viability assay, initial screening; type: cell-based; details: Homo sapiens, read-out: IC50 (relative IC50)
Procedure: (§8) In vitro viability assays were performed to assess the effects of compounds on cell viability in 7 selected cell lines over 72 hr using the CellTiterGlo (CTG, Promega-G7573) assay. The tests were performed in duplicates with treatment of compounds at 9 points, 3.16 folds titration in 96 well plates over ˜72 hr. The compound starting concentrations were […]. Cell viability assay using CellTiterGlo in 96-well plate were performed. The compound treatment was 72 hrs, under standard growth conditions, and in duplicate. Compounds were dissolved to 40 mM with thawed […]. Compounds were serially diluted at 3.16 fold in thawed DMSO, and warmed to 37° C. before being dissolved in media (2 μl+200 μl). After compounds were dissolved in media (media was also warmed to 37° C.). Media containing compounds were warmed to 37° C. in incubator and then compounds in media were added to cell plates (50 μl+50 μl), in duplicates. The compounds final concentrations were from […] to 19.9 nM. All compound solubilities were checked and recorded again, then the plates were transferred to CO2 tissue culture incubator immediately and incubated for 3 days. DMSO final concentration is 0.5%.

HepG2 = assay: CellTiterGlo viability assay, initial screening; type: cell-based; details: Homo sapiens, read-out: IC50 (relative IC50)
Procedure: as §8

CCRF-CEM = assay: CellTiterGlo viability assay, initial screening; type: cell-based; details: Homo sapiens, read-out: IC50 (relative IC50)
Procedure: as §8

MOLT-4 = assay: CellTiterGlo viability assay, initial screening; type: cell-based; details: Homo sapiens, read-out: IC50 (relative IC50)
Procedure: as §8

KG-1 = assay: CellTiterGlo viability assay, initial screening; type: cell-based; details: Homo sapiens, read-out: IC50 (relative IC50)
Procedure: as §8

K562 = assay: CellTiterGlo viability assay, initial screening; type: cell-based; details: Homo sapiens, read-out: IC50 (relative IC50)
Procedure: as §8

HL-60 = assay: CellTiterGlo viability assay, initial screening; type: cell-based; details: Homo sapiens, read-out: IC50 (relative IC50)
Procedure: as §8

| SMILES | (FD) fold difference compared to control ([1]; CEM, IC50 with AK inhibitor) | (FD) fold difference compared to control ([1]; CEM, IC50 with NBTI) | pIC50 ([1]; 72 h, CEM (TdT+ve), 72 hours) | pIC50 (K562 (TdT negative); K562, 72 h) | (FD) fold difference compared to Cordycepin = Cordycepin IC50/ProTide IC50 (HL-60 (TdT negative)) | pIC50 (HL-60 (TdT negative); HL-60, 72 h) | pIC50 (RL (CRL-2261); 72 h, CRL (RL, CRL-2261)) | pIC50 (MCF-7; MCF7, 72 h) | pIC50 (HepG2; HepG2, 72 h) | pIC50 (CCRF-CEM; 72 h) | pIC50 (MOLT-4; MOLT-4, 72 h) | pIC50 (KG-1; KG-1, 72 h) | pIC50 (K562; K562, 72 h) | pIC50 (HL-60; HL-60, 72 h) | further results |
| --- | --- | --- | --- | --- | --- | --- | --- | --- | --- | --- | --- | --- | --- | --- | --- |
| C[C@H](NP(=O)(OC[C@@H]1C[C@@H](O)[C@H](n2cnc3c(N)ncnc32)O1)Oc1cccc2ccccc12)C(=O)OCc1ccccc1 (stereo partly drawn) [B, (2S)-benzyl 2-(((((2S,4R,5R)-5-(6-amino-9H-purin-9-yl)-4-hydroxytetrahydrofuran-2-yl)methoxy)(naphthalen-1-yloxy)phosphoryl)amino)propanoate] | (1) | (1) | 6.89 | 6.68 | (4) | 5.59 | 6.40 | 5.30 to 7.00 | 4.82 to 5.30 | 5.30 to 7.00 | 5.30 to 7.00 | 4.82 to 5.30 | 5.30 to 7.00 | 4.82 to 5.30 | (FD) fold difference compared to control ([1]; CEM, IC50 with EHNA): (1); pIC50 ([1]; CEM, Control (no inhibitor)): 6.05; pIC50 ([1]; CEM, with AK (adenosine kinase inhibitor A-134974, 1 μM)): 5.89; pIC50 ([1]; CEM, with EHNA 1 μM (adenosine deaminase blocker)): 5.89; pIC50 ([1]; CEM, with NBTI 10 μM (nucleoside transporter blocker)): 5.85; pIC50 (RL (CRL-2261); CRL, Control (no inhibitor)): 5.51; (FD) fold difference compared to control (RL (CRL-2261); CRL, IC50 with AK inhibitor): (1); (FD) fold difference compared to control (RL (CRL-2261); CRL, IC50 with EHNA): (2); (FD) fold difference compared to control (RL (CRL-2261); CRL, IC50 with NBTI): (1); pIC50 (RL (CRL-2261); CRL, with AK (adenosine kinase inhibitor A-134974, 1 μM)): 5.55; pIC50 (RL (CRL-2261); CRL, with EHNA 1 μM (adenosine deaminase blocker)): 5.28; pIC50 (RL (CRL-2261); CRL, with NBTI 10 μM (nucleoside transporter blocker)): 5.59 |
| Nc1ncnc2c1ncn2[C@@H]1O[C@H](COP(=O)(NCC(=O)OCc2ccccc2)Oc2ccccc2)C[C@H]1O (stereo partly drawn) [C, Benzyl 2-(((((2S,4R,5R)-5-(6-amino-9H-purin-9-yl)-4-hydroxytetrahydrofuran-2-yl)methoxy)(phenoxy)phosphoryl)amino)acetate] |  |  |  |  |  |  |  | 4.82 to 5.30 | 4.00 to 4.82 | 4.82 to 5.30 | 5.30 to 7.00 | < 4.00 | 4.82 to 5.30 | 4.00 to 4.82 |  |
| Nc1ncnc2c1ncn2[C@@H]1O[C@H](CO)C[C@H]1O [Cordycepin, 3′-deoxyadenosine, reference compound] | (3) | (5) |  |  |  |  |  |  |  |  |  |  |  |  | pIC50 ([1]; 72 h, CEM (TdT+ve), 72 hours, read-out: IC50): 4.71; pIC50 ([1]; CEM, Control (no inhibitor), read-out: IC50): 4.94; pIC50 ([1]; CEM, with AK (adenosine kinase inhibitor A-134974, 1 μM), read-out: IC50): 4.53; pIC50 ([1]; CEM, with EHNA 1 μM (adenosine deaminase blocker), read-out: IC50): 6.15; pIC50 ([1]; CEM, with NBTI 10 μM (nucleoside transporter blocker), read-out: IC50): 4.24; pIC50 (K562 (TdT negative); K562, 72 hours, read-out: IC50): 4.96; pIC50 (HL-60 (TdT negative); HL-60, 72 hours, read-out: IC50): 4.94; pIC50 (RL (CRL-2261); 72 h, CRL (RL, CRL-2261), 72 hours, read-out: IC50): 4.61; pIC50 (RL (CRL-2261); CRL, Control (no inhibitor), read-out: IC50): 5.14; pIC50 (RL (CRL-2261); CRL, with AK (adenosine kinase inhibitor A-134974, 1 μM), read-out: IC50): 4.54; pIC50 (RL (CRL-2261); CRL, with EHNA 1 μM (adenosine deaminase blocker), read-out: IC50): 4.88; pIC50 (RL (CRL-2261); CRL, with NBTI 10 μM (nucleoside transporter blocker), read-out: IC50): 4.75; pIC50 (MCF-7; MCF7, MCF-7, 72 hr): 4.00 to 4.82; pIC50 (HepG2; HepG2, 72 hr): 4.00 to 4.82; pIC50 (CCRF-CEM; 72 hr): 4.00 to 4.82; pIC50 (MOLT-4; MOLT-4, 72 hr): 4.00 to 4.82; pIC50 (KG-1; KG-1, 72 hr): 4.00 to 4.82; pIC50 (K562; K562, 72 hr): 4.00 to 4.82; pIC50 (HL-60; HL-60, 72 hr): 4.00 to 4.82 |
| CCOC(=O)CCc1ccccc1OP(=O)(N[C@@H](C)C(=O)OCc1ccccc1)OC[C@@H]1C[C@@H](O)[C@H](n2cnc3c(N)ncnc32)O1 (stereo partly drawn) [F, (2S)-benzyl 2-(((((2S,4R,5R)-5-(6-amino-9H-purin-9-yl)-4-hydroxytetrahydrofuran-2-yl)methoxy)(2-(3-ethoxy-3-oxopropyl)phenoxy)phosphoryl)amino)propanoate] |  |  | 5.37 | 5.20 | (1) | 5.08 | 5.47 | 4.82 to 5.30 | 4.00 to 4.82 |  | 5.30 to 7.00 | 4.00 to 4.82 | 4.00 to 4.82 | 4.00 to 4.82 | (FD) fold difference compared to Cordycepin = Cordycepin IC50/ProTide IC50 ([1]; CEM (TdT+ve)): (5); (FD) fold difference compared to Cordycepin = Cordycepin IC50/ProTide IC50 (K562 (TdT negative); K562): (2); (FD) fold difference compared to Cordycepin = Cordycepin IC50/ProTide IC50 (RL (CRL-2261); CRL (RL, CRL-2261)): (7) |
